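Cells were grown in 96-well plates and exposed to each compound for 48 hours at five concentrations; endpoints were interpolated linearly between bracketing concentrations, or set to the highest concentration if not reached. At the GI50, growth is halved.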 Active and inactive are the calls of the source. No stated cut-off is given here; in the data, active = GI50 up to about 1.1 µM and inactive = higher.
Experiments:
Assay in all cases: NCI-60 cell line screen, 48 h
NCI-H522 = tested on: NCI-H522
LOX IMVI = tested on: LOX IMVI
SF-295 = tested on: SF-295
SNB-75 = tested on: SNB-75
OVCAR-5 = tested on: OVCAR-5
HOP-92 = tested on: HOP-92
HCT-15 = tested on: HCT-15
SW-620 = tested on: SW-620
T47D = tested on: T47D
UO-31 = tested on: UO-31
IGROV-1 = tested on: IGROV-1
HCC 2998 = tested on: HCC 2998
HT-29 = tested on: HT-29
EKVX = tested on: EKVX
KM12 = tested on: KM12
SR = tested on: SR
A549 = tested on: A549
HL-60 = tested on: HL-60
SF-268 = tested on: SF-268
SK-MEL-28 = tested on: SK-MEL-28

| SMILES | GI50 (NCI-H522) | GI50 (LOX IMVI) | GI50 (SF-295) | GI50 (SNB-75) | GI50 (OVCAR-5) | GI50 (HOP-92) | GI50 (HCT-15) | GI50 (SW-620) | GI50 (T47D) | GI50 (UO-31) | GI50 (IGROV-1) | GI50 (HCC 2998) | GI50 (HT-29) | GI50 (EKVX) | GI50 (KM12) | GI50 (SR) | GI50 (A549) | GI50 (HL-60) | GI50 (SF-268) | GI50 (SK-MEL-28) |
| --- | --- | --- | --- | --- | --- | --- | --- | --- | --- | --- | --- | --- | --- | --- | --- | --- | --- | --- | --- | --- |
| CCCCC1NC=Nc2c1ccc1c2[nH]c2ccccc21 (stereo not given) | 1.84 µM (inactive) | 1.94 µM (inactive) | 2.48 µM (inactive) | 4.02 µM (inactive) | 4.63 µM (inactive) | 3.94 µM (inactive) | 2.39 µM | 1.95 µM (inactive) | 1.45 µM (inactive) | 10.3 µM (inactive) | 3.08 µM (inactive) | 1.71 µM (inactive) | 1.86 µM (inactive) | 3.8 µM (inactive) | 5.82 µM (inactive) | 1.28 µM (inactive) | 2.3 µM (inactive) | 1.78 µM (inactive) | 4 µM (inactive) | 10.3 µM (inactive) |
| CC1(C)CCCC2CC2CCC(C)(C)C1=O (stereo not given) | 37.5 µM (inactive) | 27.5 µM (inactive) | > 100 µM (inactive) | 71 µM (inactive) | 46.5 µM (inactive) | 74.8 µM (inactive) | 71.9 µM | > 100 µM (inactive) | > 100 µM (inactive) | > 100 µM (inactive) | > 100 µM (inactive) | 0.242 µM (active) | 44.7 µM (inactive) | 57.9 µM (inactive) | 56.2 µM (inactive) | 10.8 µM (inactive) | 42.4 µM (inactive) | 18.1 µM (inactive) | > 100 µM (inactive) | > 100 µM (inactive) |
| COC(=O)C1CCC(=O)N1C(c1ccc2c(c1)OCO2)c1ccc2c(c1)OCO2 (stereo not given) | > 100 µM (inactive) | > 100 µM (inactive) | > 100 µM (inactive) | > 100 µM (inactive) | > 100 µM (inactive) | > 100 µM (inactive) | > 100 µM | > 100 µM (inactive) | > 100 µM (inactive) | 51.9 µM (inactive) | > 100 µM (inactive) | > 100 µM (inactive) | > 100 µM (inactive) | > 100 µM (inactive) | > 100 µM (inactive) | > 100 µM (inactive) | > 100 µM (inactive) | > 100 µM (inactive) | > 100 µM (inactive) | > 100 µM (inactive) |

From ChEMBL document CHEMBL1201862, “PubChem BioAssay data set” (2004)
